# Non-standard residues stand in square brackets, D forms with d. Residues, ends and D or L forms follow the SMILES beside them. No end group written: not given here. *: point of attachment. Palmitoyl = CCCCCCCCCCCCCCCC(=O)*
# What was measured:
# C. acnes biofilm = settings: strains with the strongest C. acnes biofilm formation ability
# Experimental: Briefly, 250 μl of bacterial cells (1×10^6 CFU/ml) of 10 strains (C. acnes 3, 4, 23, 25, 55, 61, 62, 63, 68, 78) (FIG. 9) with the strongest biofilm formation ability were inoculated in a Greiner polyethylene 96well plate (Sigma Aldrich); TSB culture medium containing no bacteria was used as the blank control, and the plate was incubated at 37° C. for 24 hours. The culture medium was subsequently removed, and wells were carefully washed with PBS three times to remove C. acnes bacteria.
# Subsequently, 250 μl of TSB culture medium containing the aforementioned polypeptides in serial doubling dilutions was added to each well. TSB medium without any of the polypeptides was used as a negative control, and plates were incubated at 37° C. for 24 hours. If OD600<0.1, there was no bacterial growth, and the lowest concentration without bacterial growth at this time point was recorded; this is the Minimum Biofilm Inhibitory Concentration (MBIC). Then, the cells and polypeptides in the 96-well cell culture plate were washed with PBS, and 250 μl of TSB culture medium was added to each well.
# The plates were incubated at 37° C. for 24 hours to re-grow the surviving biofilm bacteria. […] The lowest concentration at which no bacterial growth was recorded is the minimal biofilm eradication concentration (MBEC).
# [1] = test system: other bacteria tested (C. granulosum, C. avidum, S. aureus, S. epidermis, C. striatum); assay: In vitro killing assay on the other (non C. acnes) bacteria; type: cell-based
# Experimental: Inoculi of mid-log phase bacteria were prepared by incubating the above isolated colonies from blood agar plates in Tryptic Soy Broth (TSB) medium (Becton Dickinson, Le Pont de Clax, France) for 2.5 hours and then diluted to the concentration needed.
# For the in vitro killing assay on mid-log phase bacteria, each of the above strains were resuspended to a concentration of 1×10^6 bacteria/ml in phosphate buffered saline (PBS). Subsequently, 200 μl was added to a concentration range of peptides Wildtype BLP-7, BMBN-1, BMBN-2, BMBN-3, BMBN-4, BMBN-5, BMBN-6, and BMBN-7 that were lyophilized in advance. Subsequently, the bacteria-peptide mixtures were incubated for 1 hour at 37° C. To establish the killing capacity and specificity of these peptides, the suspensions were serially diluted and plated onto DST agar plates to measure viable CFU counts. IC90, IC99 and IC99.9 values were calculated by linear regression analysis. […] Results were pooled from 4 independent experiments concerning the above C. acnes strains (FIG. 2B) and 5 independent experiments concerning the other non C. acnes related strains (FIG. 2B continued). The results are expressed as mean±standard deviation (SD).
# human erythrocytes = test system: human erythrocytes
# Experimental: A hemolytic assay was performed as previously described by Zelezetsky et al.. Freshly drawn human erythrocytes were rinsed three times with phosphate buffered saline (PBS) and resuspended in PBS to 4% (v/v). […] PBS and 0.1% (v/v) Triton-X 100 were used as 0% and 100% hemolytic control respectively. Plates were incubated at 37° C. for 1 hour.
# Subsequently, the plate was centrifuged and the supernatant was transferred to a new plate. The release of hemoglobin in the supernatant was monitored at absorbance of 450 nm using an Infinite M1000 Microplate reader (Tecan). Results were pooled from three independent experiments and expressed as mean±SD. HC10 and HC50 were defined as the peptide concentrations causing 10% and 50% hemolysis on human erythrocytes, respectively.
molecule,measurement,setting,value
CCCCCCCCCCCCCCCC(=O)NCC(=O)N[C@H](C(=O)NCC(=O)NCC(=O)N[C@@H](C)C(=O)N[C@@H](CC(C)C)C(=O)N[C@@H](CC(C)C)C(=O)N[C@@H](CO)C(=O)N[C@@H](C)C(=O)NCC(=O)N[C@@H](CCCCN)C(=O)N[C@@H](CO)C(=O)N[C@@H](C)C(=O)N[C@@H](CC(C)C)C(=O)N[C@@H](CCCCN)C(=O)NCC(=O)N[C@@H](CC(C)C)C(=O)N[C@@H](C)C(=O)N[C@@H](CCCCN)C(=O)NCC(=O)N[C@@H](CC(C)C)C(=O)N[C@@H](C)C(=O)N[C@@H](CCC(=O)O)C(=O)N[C@@H](Cc1c[nH]cn1)C(=O)N[C@@H](Cc1ccccc1)C(=O)N[C@@H](C)C(=O)N[C@@H](CC(N)=O)C(N)=O)[C@@H](C)CC [BMBN-1] (Palmitoyl-GIGGALLSAGKSALKGLAKGLAEHFAN-NH2),MBEC (concentration that eradicates the biofilm),C. acnes biofilm,235 to 496 µg/mL
CCCCCCCCCCCCCCCC(=O)N[C@@H](CCC(=O)O)C(=O)N[C@@H](CCCNC(=N)N)C(=O)N[C@@H](CC(N)=O)C(=O)N[C@@H](CC(N)=O)C(=O)N[C@@H](Cc1ccccc1)C(=O)NCC(=O)NCC(=O)NCC(=O)N[C@H](CC(N)=O)C(=O)N[C@H](C)C(=O)N[C@H](Cc1ccccc1)C(=O)N[C@H](Cc1c[nH]cn1)C(=O)N[C@H](CCC(=O)O)C(=O)N[C@H](C)C(=O)N[C@H](CC(C)C)C(=O)NCC(=O)N[C@H](CCCCN)C(=O)N[C@H](C)C(=O)N[C@H](CC(C)C)C(=O)NCC(=O)N[C@H](CCCCN)C(=O)N[C@H](CC(C)C)C(=O)N[C@H](C)C(=O)N[C@H](CO)C(=O)N[C@H](CCC(=O)O)C(=O)NCC(=O)N[C@H](C)C(=O)N[C@H](CO)C(=O)N[C@H](CC(C)C)C(=O)N[C@H](CC(C)C)C(=O)N[C@H](C)C(=O)NCC(=O)NCC(=O)N[C@@H](C(=O)NCC(N)=O)[C@H](C)CC [BMBN-6] (Palmitoyl-ERNNFGGG[dN][dA][dF][dH][dE][dA][dL]G[dK][dA][dL]G[dK][dL][dA][dS][dE]G[dA][dS][dL][dL][dA]GG[dI]G-NH2),"effect on other, untargeted bacteria / specificity towards C. acnes (in words)",[1],specificity towards C. acnes only negligibly decreased
CCCCCCCCCCCCCCCC(=O)N[C@H](CCC(=O)O)C(=O)N[C@H](CCCNC(=N)N)C(=O)N[C@H](CC(N)=O)C(=O)N[C@H](CC(N)=O)C(=O)N[C@H](Cc1ccccc1)C(=O)NCC(=O)NCC(=O)NCC(=O)NCC(=O)N[C@@H](C(=O)NCC(=O)NCC(=O)N[C@H](C)C(=O)N[C@H](CC(C)C)C(=O)N[C@H](CC(C)C)C(=O)N[C@H](CO)C(=O)N[C@H](C)C(=O)NCC(=O)N[C@H](CCC(=O)O)C(=O)N[C@H](CO)C(=O)N[C@H](C)C(=O)N[C@H](CC(C)C)C(=O)N[C@H](CCCCN)C(=O)NCC(=O)N[C@H](CC(C)C)C(=O)N[C@H](C)C(=O)N[C@H](CCCCN)C(=O)NCC(=O)N[C@H](CC(C)C)C(=O)N[C@H](C)C(=O)N[C@H](CCC(=O)O)C(=O)N[C@H](Cc1c[nH]cn1)C(=O)N[C@H](Cc1ccccc1)C(=O)N[C@H](C)C(=O)N[C@H](CC(N)=O)C(N)=O)[C@H](C)CC [BMBN-7] (Palmitoyl-[dE][dR][dN][dN][dF]GGGG[dI]GG[dA][dL][dL][dS][dA]G[dE][dS][dA][dL][dK]G[dL][dA][dK]G[dL][dA][dE][dH][dF][dA][dN]-NH2),hemolytic activity (in words),human erythrocytes,negligible hemolytic activity
same,MBIC (concentration that inhibits the biofilm),C. acnes biofilm,56 to 117 µg/mL
"GIGGALLSAGKSALKGLAKGLAEHFAN-NH2 [Wildtype BLP-7, reference compound]",hemolytic activity (in words),human erythrocytes,within the range of negligible hemolytic activity

# From patent publication US20240254175A1, “NOVEL SELECTIVE ANT[…] PEPTIDES” (BOMBI BIOMICS BV, priority 2021, published 2024)
